# Source: the supplement of paper PMC10307832
# Tests used:
# Assay in all cases: relative viability (nuclei count vs DMSO), 5 days (fraction); higher = more cells survive
# [1] = test system: ABC-1
# Method in brief: (§1)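 Cells from lung cancer lines were seeded into 1536-well plates and, one day later, dosed by pin tool. Treatments were either a single drug or a fixed dose of an anchor drug with five library-drug doses (not always all listed) in √10 steps. After 5 days, nuclei were stained in a one-step fixation (final 0.05% Triton X-100, 1% formaldehyde, 1 ug/ml Hoechst) and counted on 4× images, and relative viability is the treated-to-vehicle nuclei ratio, as the median of duplicate plates.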
# [2] = test system: CAL-12T
# Method in brief: as §1
# [3] = test system: ChaGo-K-1
# Method in brief: as §1
# [4] = test system: HCC-366
# Method in brief: as §1
# [5] = test system: HCC-78
# Method in brief: as §1
# [6] = test system: LC-2-ad
# Method in brief: as §1
# [7] = test system: LOU-NH91
# Method in brief: as §1
# [8] = test system: LU99A
# Method in brief: as §1
# [9] = test system: NCI-H1651
# Method in brief: as §1
# [10] = test system: NCI-H1734
# Method in brief: as §1
# [11] = test system: NCI-H1755
# Method in brief: as §1
# [12] = test system: NCI-H2087
# Method in brief: as §1
# [13] = test system: NCI-H2228
# Method in brief: as §1
# [14] = test system: NCI-H2405
# Method in brief: as §1
# [15] = test system: NCI-H3122
# Method in brief: as §1
# [16] = test system: NCI-H460
# Method in brief: as §1
# [17] = test system: PC-3 [JPC-3]
# Method in brief: as §1
# [18] = test system: RERF-LC-KJ
# Method in brief: as §1
# [19] = test system: UMC-11
# Method in brief: as §1
structure (smiles),measurement,setting,value
NC(=O)Nc1cc(-c2cccc(F)c2)sc1C(=O)N[C@H]1CCCNC1 [AZD7762] + CC(C)C[C@H](NC(=O)[C@H](Cc1ccccc1)NC(=O)c1cnccn1)B(O)O [Bortezomib] (partner 0.002 µM),relative viability,[1]; first compound 0.01 µM,0.276
same,relative viability,[1]; first compound 0.03162 µM,0.389
same,relative viability,[1]; first compound 0.1 µM,0.3
same,relative viability,[1]; first compound 0.3162 µM,0.26
same,relative viability,[1]; first compound 1 µM,0.202
same,relative viability,[2]; first compound 0.01 µM,0.96
same,relative viability,[2]; first compound 0.03162 µM,1.06
same,relative viability,[2]; first compound 0.1 µM,0.931
same,relative viability,[2]; first compound 0.3162 µM,0.641
same,relative viability,[2]; first compound 1 µM,0.23
same,relative viability,[3]; first compound 0.01 µM,0.861
same,relative viability,[3]; first compound 0.03162 µM,1.01
same,relative viability,[3]; first compound 0.1 µM,0.961
same,relative viability,[3]; first compound 0.3162 µM,0.958
same,relative viability,[3]; first compound 1 µM,0.865
same,relative viability,[4]; first compound 0.01 µM,1.1
same,relative viability,[4]; first compound 0.03162 µM,1.04
same,relative viability,[4]; first compound 0.1 µM,1.03
same,relative viability,[4]; first compound 0.3162 µM,0.62
same,relative viability,[4]; first compound 1 µM,0.0941
same,relative viability,[5]; first compound 0.01 µM,0.561
same,relative viability,[5]; first compound 0.03162 µM,0.528
same,relative viability,[5]; first compound 0.1 µM,0.526
same,relative viability,[5]; first compound 0.3162 µM,0.62
same,relative viability,[5]; first compound 1 µM,0.391
same,relative viability,[6]; first compound 0.01 µM,1.04
same,relative viability,[6]; first compound 0.03162 µM,1.14
same,relative viability,[6]; first compound 0.1 µM,0.975
same,relative viability,[6]; first compound 0.3162 µM,0.909
same,relative viability,[6]; first compound 1 µM,0.732
same,relative viability,[7]; first compound 0.01 µM,0.558
same,relative viability,[7]; first compound 0.03162 µM,0.462
same,relative viability,[7]; first compound 0.1 µM,0.487
same,relative viability,[7]; first compound 0.3162 µM,0.548
same,relative viability,[7]; first compound 1 µM,0.522
same,relative viability,[8]; first compound 0.01 µM,1.09
same,relative viability,[8]; first compound 0.03162 µM,1.24
same,relative viability,[8]; first compound 0.1 µM,1.25
same,relative viability,[8]; first compound 0.3162 µM,0.867
same,relative viability,[8]; first compound 1 µM,0.402
same,relative viability,[9]; first compound 0.01 µM,0.945
same,relative viability,[9]; first compound 0.03162 µM,0.932
same,relative viability,[9]; first compound 0.1 µM,1.01
same,relative viability,[9]; first compound 0.3162 µM,0.963
same,relative viability,[9]; first compound 1 µM,0.686
same,relative viability,[10]; first compound 0.01 µM,0.912
same,relative viability,[10]; first compound 0.03162 µM,1.04
same,relative viability,[10]; first compound 0.1 µM,0.963
same,relative viability,[10]; first compound 0.3162 µM,0.821
same,relative viability,[10]; first compound 1 µM,0.527
same,relative viability,[11]; first compound 0.01 µM,0.919
same,relative viability,[11]; first compound 0.03162 µM,1.03
same,relative viability,[11]; first compound 0.1 µM,1.05
same,relative viability,[11]; first compound 0.3162 µM,0.926
same,relative viability,[11]; first compound 1 µM,0.384
same,relative viability,[12]; first compound 0.01 µM,0.88
same,relative viability,[12]; first compound 0.03162 µM,0.851
same,relative viability,[12]; first compound 0.1 µM,0.792
same,relative viability,[12]; first compound 0.3162 µM,0.972
same,relative viability,[12]; first compound 1 µM,1.01
same,relative viability,[13]; first compound 0.01 µM,1.04
same,relative viability,[13]; first compound 0.03162 µM,1.33
same,relative viability,[13]; first compound 0.1 µM,1.03
same,relative viability,[13]; first compound 0.3162 µM,0.723
same,relative viability,[13]; first compound 1 µM,0.389
same,relative viability,[14]; first compound 0.01 µM,0.933
same,relative viability,[14]; first compound 0.03162 µM,0.982
same,relative viability,[14]; first compound 0.1 µM,0.963
same,relative viability,[14]; first compound 0.3162 µM,0.943
same,relative viability,[14]; first compound 1 µM,0.796
same,relative viability,[15]; first compound 0.01 µM,1.04
same,relative viability,[15]; first compound 0.03162 µM,1.01
same,relative viability,[15]; first compound 0.1 µM,1.05
same,relative viability,[15]; first compound 0.3162 µM,0.966
same,relative viability,[15]; first compound 1 µM,1.09
same,relative viability,[16]; first compound 0.01 µM,1.18
same,relative viability,[16]; first compound 0.03162 µM,1.04
same,relative viability,[16]; first compound 0.1 µM,1.18
same,relative viability,[16]; first compound 0.3162 µM,0.88
same,relative viability,[16]; first compound 1 µM,0.0988
same,relative viability,[17]; first compound 0.01 µM,0.886
same,relative viability,[17]; first compound 0.03162 µM,0.88
same,relative viability,[17]; first compound 0.1 µM,0.829
same,relative viability,[17]; first compound 0.3162 µM,0.883
same,relative viability,[17]; first compound 1 µM,0.785
same,relative viability,[18]; first compound 0.01 µM,1.16
same,relative viability,[18]; first compound 0.03162 µM,1.11
same,relative viability,[18]; first compound 0.1 µM,1.11
same,relative viability,[18]; first compound 0.3162 µM,1.11
same,relative viability,[18]; first compound 1 µM,1.14
same,relative viability,[19]; first compound 0.01 µM,0.692
same,relative viability,[19]; first compound 0.03162 µM,0.585
same,relative viability,[19]; first compound 0.1 µM,0.409
same,relative viability,[19]; first compound 0.3162 µM,0.632
same,relative viability,[19]; first compound 1 µM,0.435
C=C1C(=O)O[C@@H](CCCCCCCC)[C@@H]1C(=O)O [C-75] + CC(C)C[C@H](NC(=O)[C@H](Cc1ccccc1)NC(=O)c1cnccn1)B(O)O [Bortezomib] (partner 0.002 µM),relative viability,[1]; first compound 0.08 µM,0.295
same,relative viability,[1]; first compound 0.253 µM,0.314
same,relative viability,[1]; first compound 0.8 µM,0.373
same,relative viability,[1]; first compound 2.53 µM,0.178
same,relative viability,[1]; first compound 8 µM,0.234
same,relative viability,[2]; first compound 0.08 µM,0.949
same,relative viability,[2]; first compound 0.253 µM,0.967
same,relative viability,[2]; first compound 0.8 µM,0.758
same,relative viability,[2]; first compound 2.53 µM,0.946
same,relative viability,[2]; first compound 8 µM,0.928
same,relative viability,[3]; first compound 0.08 µM,0.927
same,relative viability,[3]; first compound 0.253 µM,0.944
same,relative viability,[3]; first compound 0.8 µM,0.894
same,relative viability,[3]; first compound 2.53 µM,0.872
same,relative viability,[3]; first compound 8 µM,0.96
same,relative viability,[4]; first compound 0.08 µM,1.07
same,relative viability,[4]; first compound 0.253 µM,1.16
same,relative viability,[4]; first compound 0.8 µM,0.973
same,relative viability,[4]; first compound 8 µM,0.941
same,relative viability,[5]; first compound 0.08 µM,0.507
same,relative viability,[5]; first compound 0.253 µM,0.412
same,relative viability,[5]; first compound 0.8 µM,0.386
same,relative viability,[5]; first compound 2.53 µM,0.423
same,relative viability,[5]; first compound 8 µM,0.472
same,relative viability,[6]; first compound 0.08 µM,1.04
same,relative viability,[6]; first compound 0.253 µM,0.97
same,relative viability,[6]; first compound 0.8 µM,0.985
same,relative viability,[6]; first compound 8 µM,0.961
same,relative viability,[7]; first compound 0.08 µM,0.47
same,relative viability,[7]; first compound 0.253 µM,0.495
same,relative viability,[7]; first compound 0.8 µM,0.454
same,relative viability,[7]; first compound 2.53 µM,0.346
same,relative viability,[7]; first compound 8 µM,0.394
same,relative viability,[8]; first compound 0.08 µM,1.1
same,relative viability,[8]; first compound 0.253 µM,1.03
same,relative viability,[8]; first compound 0.8 µM,1.08
same,relative viability,[8]; first compound 2.53 µM,0.933
same,relative viability,[8]; first compound 8 µM,0.885
same,relative viability,[9]; first compound 0.08 µM,0.92
same,relative viability,[9]; first compound 0.253 µM,0.894
same,relative viability,[9]; first compound 0.8 µM,0.875
same,relative viability,[9]; first compound 2.53 µM,0.843
same,relative viability,[9]; first compound 8 µM,0.886
same,relative viability,[10]; first compound 0.08 µM,1.13
same,relative viability,[10]; first compound 0.253 µM,0.934
same,relative viability,[10]; first compound 0.8 µM,0.886
same,relative viability,[10]; first compound 2.53 µM,0.812
same,relative viability,[10]; first compound 8 µM,0.785
same,relative viability,[11]; first compound 0.08 µM,0.985
same,relative viability,[11]; first compound 0.253 µM,0.96
same,relative viability,[11]; first compound 0.8 µM,0.925
same,relative viability,[11]; first compound 2.53 µM,0.805
same,relative viability,[11]; first compound 8 µM,0.957
same,relative viability,[12]; first compound 0.08 µM,0.724
same,relative viability,[12]; first compound 0.253 µM,0.863
same,relative viability,[12]; first compound 0.8 µM,0.743
same,relative viability,[12]; first compound 2.53 µM,0.396
same,relative viability,[12]; first compound 8 µM,0.581
same,relative viability,[13]; first compound 0.08 µM,0.836
same,relative viability,[13]; first compound 0.253 µM,1.43
same,relative viability,[13]; first compound 0.8 µM,0.8
same,relative viability,[13]; first compound 2.53 µM,0.729
same,relative viability,[13]; first compound 8 µM,0.746
same,relative viability,[14]; first compound 0.08 µM,0.995
same,relative viability,[14]; first compound 0.253 µM,0.773
same,relative viability,[14]; first compound 0.8 µM,0.974
same,relative viability,[14]; first compound 2.53 µM,0.673
same,relative viability,[14]; first compound 8 µM,0.971
same,relative viability,[15]; first compound 0.08 µM,1.01
same,relative viability,[15]; first compound 0.253 µM,0.987
same,relative viability,[15]; first compound 0.8 µM,0.989
same,relative viability,[15]; first compound 8 µM,1.04
same,relative viability,[16]; first compound 0.08 µM,1.05
same,relative viability,[16]; first compound 0.253 µM,1.22
same,relative viability,[16]; first compound 0.8 µM,0.982
same,relative viability,[16]; first compound 8 µM,0.945
same,relative viability,[17]; first compound 0.08 µM,0.826
same,relative viability,[17]; first compound 0.253 µM,0.839
same,relative viability,[17]; first compound 0.8 µM,0.826
same,relative viability,[17]; first compound 2.53 µM,0.581
same,relative viability,[17]; first compound 8 µM,0.836
same,relative viability,[18]; first compound 0.08 µM,1.17
same,relative viability,[18]; first compound 0.253 µM,1.09
same,relative viability,[18]; first compound 0.8 µM,1.21
same,relative viability,[18]; first compound 2.53 µM,1.09
same,relative viability,[18]; first compound 8 µM,1.31
same,relative viability,[19]; first compound 0.08 µM,0.691
same,relative viability,[19]; first compound 0.253 µM,0.761
same,relative viability,[19]; first compound 0.8 µM,0.804
same,relative viability,[19]; first compound 2.53 µM,0.575
same,relative viability,[19]; first compound 8 µM,0.604
